“Also recorded” adds a separate entry of the source. Where two headings read alike, the source gives them in different places.
Key:
Fusobacterium nucleatum = assay: Pilot compound screen for inhibition of Fusobacterium growth (BacTiter Glow luminescence); format: cell-based; settings: 32 μM, in duplicate, 48 hours anaerobic; hit cut-off 3 SD from mean of neutral controls
Procedure: FIG. 16 depicts determining threshold to identify inhibitor hits. Neutral Control=untreated F. nucleatum. Inhibitor Control=F. nucleatum treated with metronidazole. 3 SD from mean of neutral controls=−86% inhibition hit cut-off.
FIG. 17 depicts identifying compounds that inhibit Fusobacterium growth. […] 3 SD from mean of neutral controls=−86% inhibition hit cut-off. 34 inhibitory compounds identified.
A pilot screen containing 1,846 compounds (in duplicate), at [32 μM] was carried out. Approximately 1-2×10^6 Fusobacterium nucleatum cells/ml was seeded and incubated anaerobically for 48 hours. The read out was by the addition of BacTiter Glow and luminescence read out.
(§1) A method for determining the threshold to identify inhibitor hits was established and carried out (FIG. 16). […] Validation of inhibitor hits and related compounds was carried out and dose response was determined for 5-FU, carmofur, and tegafur (FIG. 18). Validation of inhibitor hits was also carried out with additional patient CRC isolates of Fusobacterium (FIG. 19). […] Applicants also investigated whether the presence of Fusobacterium in colorectal tumors can explain patient response to 5-FU-based therapies. Data of 91 patient colorectal adenocarcinoma tumors with recurrence were obtained by Fusobacterium culture and bacterial 16s rRNA sequencing analysis.

[1] = test system: patient colorectal cancer isolates of Fusobacterium nucleatum and Fusobacterium necrophorum; assay: Validation with additional patient CRC isolates of Fusobacterium; format: cell-based; settings: compared with plasma levels of treated patients (Takimoto et al. 1999)
Procedure: FIG. 19 depicts validation of with additional patient CRC isolates of Fusobacterium. […] (Takimoto et al., Clinical cancer research: an official journal of the American Association for Cancer Research 5, 1347-1352 (1999)).
as §1

[2] = test system: Fusobacterium-positive colorectal tumors; assay: Recurrence/metastasis of patient colorectal adenocarcinoma tumors by Fusobacterium status and 5-FU treatment; settings: 91 patient tumors with recurrence data; 43 patients treated with 5-FU or a 5-FU prodrug; p<0.05
Procedure: FIG. 20 illustrates a comparison between tumors treated with 5-FU or a 5-FU prodrug (right panel) and tumors with no treatment (left panel). A total of 91 patient colorectal adenocarcinoma tumors with recurrence data were analyzed by Fusobacterium culture and bacterial 16s rRNA sequencing.
as §1

[3] = during chemotherapy for adenocarcinoma of the small bowel; cited from earlier work
[4] = test system: COCA36F3 F. nucleatum (colorectal cancer isolate); assay: Validation of inhibitor hits, dose response curves; format: cell-based, Fusobacterium nucleatum; settings: 8-point, 2-fold dilutions, range 30-0.23 μM
Procedure: FIG. 18 depicts validation of inhibitor hits (and related compounds). […] Validation/dose plates: 8-point, 2-fold dilutions, range 30-0.23 μM. Dose Response Curves [0.32-30 μM]: COCA36F3 F. nucleatum (colorectal cancer isolate).
as §1

[5] = test system: F. nucleatum strains isolated from COCA36 primary tumor and derived xenografts; assay: Antibiotic sensitivity testing (E-test) of clinical F. nucleatum isolates; format: cell-based, Fusobacterium nucleatum; settings: for MIC: Fusobacterium nucleatum
Procedure: FIG. 14: Antibiotic sensitivity testing (E-test) of clinical F. nucleatum isolates. E-test on F. nucleatum strains isolated from COCA36 primary tumor and derived xenografts. All E-tests were carried out in triplicate on both FAA agar. The antibiotics tested were metronidazole (MZ), cefoxitin (FX) and imipenem (IP). All F. nucleatum strains tested were sensitive to cefoxitin and metronidazole in vitro: test range was 0.016 to 256 ug/ml. […] The F. nucleatum strains tested were resistant/hetero-resistant to imipenem in vitro.
A 1 McFarland solution, in TSB, was prepared from Fusobacterium strains grown for 24-48 hours on FAA under anaerobic conditions. Using a sterile cotton swab, each Fusobacterium strain were inoculated onto antibiotic free blood agar (FAA) and E-test strip (bioMérieux) for Metronidazole (MZ), Clindamycin (CM), Cefoxitin (FX) and Imipenem (IP) were incubated for up to 72 hours and sensitivity checked after 48 hours. Each sensitivity assay was conducted in triplicate. An FAA blood plate inoculated with each Fusobacterium strain, but without the E-test strip, was used as a growth control.

[6] = test system: ETBF induced murine colonic tumors; settings: DeStefano Shields et al. 2016; cited from earlier work
Fusobacterium species = settings: cited from earlier work; for general susceptibility of the species: background statement on Fusobacterium
[7] = test system: Fusobacterium-positive PDX tumors (COCA36); assay: In vivo metronidazole trial, tumor volume of Fusobacterium-positive PDX; parameters: species or system nude mice (Nu/Nu); settings: 100 mg/kg/day oral gavage, approximately 3 weeks, vs vehicle; p=0.0005
Procedure: Animals bearing tumors (with volumes <250 mm^3) were randomized into statistically identical cohorts and treated with 100 mg/kg/day of metronidazole (Sigma Aldrich, USA), (suspension in 0.5% methylcellulose) or with the vehicle alone (0.5% methylcellulose) by oral gavage, daily, for approximately 3 weeks.
(§2) Nu/nu mice were raised in the specific-pathogen-free (SPF) conditions with autoclaved food and water. For both patient and HT-29 cell derived xenografts, tumor size was measured by caliper every Monday, Wednesday and Friday each week. Tumor volume was calculated using the formula: Volume=0.5×L×W^2 and growth rate was measured by calculating the percentage increase in volume. Tumor measurements were carried out in a blinded approach. Mouse body weight was recorded every 3 to 7 days. Mice were euthanized when the tumor diameter reached 2 cm or following the 3 weeks of drug treatment. Tissues were cryopreserved in Bambanker cell freezing media (Wako Chemicals USA) or snap frozen in liquid nitrogen and stored at −80° C. PDX experiments were performed with 22 (untreated group) and 24 (treated group) mice at timepoint zero, over three independent trials. HT-29 derived xenograft experiments were performed with 20 (untreated group) and 19 (treated group) mice at timepoint zero, over two independent trials. […]

[8] = test system: Fusobacterium-free xenografts derived from HT-29 colon adenocarcinoma cells; assay: In vivo metronidazole trial, Fusobacterium-free HT-29 cell line xenograft; parameters: species or system nude mice (Nu/Nu); settings: 100 mg/kg/day oral gavage, approximately 3 weeks, vs vehicle; p>0.05 at all timepoints
Procedure: For HT-29 cell line xenograft experiments, approximately 1×10^6 HT29 cells were suspended in PBS, mixed 1:1 with Matrigel (BD Biosciences), and injected subcutaneously into the flanks of nude mice (Nu/Nu; Taconic) in a final volume of 100 μL. Following 10-14 days post implantation, mice were randomized into statistically identical cohorts and treated with 100 mg/kg/day of metronidazole (suspension in 0.5% methylcellulose) or with vehicle alone by oral gavage daily for approximately 3 weeks.
as §2, with “trials.” for “trials. HT-29 derived xenograft experiments were performed with 20 (untreated group) and 19 (treated group) mice at timepoint zero, over two independent trials.”

Fusobacterium = assay: Fusobacterium-targeted qPCR on PDX tissue after treatment; format: in vivo, Fusobacterium species in PDX (COCA36) in Nu/Nu mice; settings: PDX COCA36, metronidazole vs vehicle; p=0.002
Procedure: A custom TaqMan primer/probe set was used to amplify Fusobacterium species DNA (Integrated DNA technologies, CA) as previously described (28). The cycle threshold (Ct) values for Fusobacterium species were normalized to the amounts of human genomic DNA in each reaction by using a primer and probe set for the prostaglandin transporter (PGT) reference gene, and the fold difference (2^−ΔCt) in Fusobacterium load in tumor tissue was calculated as described before (8). Each reaction contained 100 ng of genomic DNA and was assayed in triplicate in 20 μL reactions containing 1× final concentration TaqMan Universal Master Mix (Applied Biosystems) and each TaqMan Gene Expression Assay (Applied Biosystems), in a 96-well optical PCR plate. Amplification and detection of DNA was performed with the ABI 7300 Real-Time PCR System (Applied Biosystems) using the following reaction conditions: 10 min at 95° C. and 42 cycles of 15 s at 95° C. and 1 min at 60° C. Cycle thresholding (Ct) was calculated using the automated settings (Applied Biosystems). The primer and probe sequences for each TaqMan Gene Expression Assay were as follows (SEQ ID. 1-6): Fusobacterium species forward primer, 5′-[…]-3′; Fusobacterium species reverse primer, 5′-[…]-3′; Fusobacterium species FAM probe, 5′-[…]-3′. […]

[9] = test system: PDX tumors (COCA36), tumor cell proliferation; assay: In vivo BrdU incorporation assay (IHC) of PDX tumors; parameters: species or system nude mice (Nu/Nu); settings: n=6 per arm, three weeks treatment vs vehicle, p=0.0015
Procedure: Bromodeoxyuridine (BrdUrd) solution (10 mg/mL, 0.2 mL/mouse) was administered via intraperitoneal injection 16 hours after the last dose of metronidazole or vehicle. After 2 additional hours, mice were sacrificed and tumors were fixed in 10% formalin for immunohistochemistry (IHC) analysis. A total of 6 animals per arm, that were treated with metronidazole or the vehicle for three weeks were randomly selected, over two independent trials, for BrdU incorporation analysis. IHC was performed on 4-μm sections of formalin-fixed paraffin-embedded samples. Tissue sections were deparaffinized and rehydrated, and antigen retrieval was performed in 10 mmol/L citrate buffer (pH 6.0) in a 750 W microwave oven at […] for 30 minutes for BrdU staining, BrdU primary antibody (BD Biosciences, #347580) was added at a dilution of 1:100 and incubated for 1 hour at room temperature. Sections were further processed with horseradish peroxidase-conjugated secondary antibody. The reaction was detected by 3,3-diaminobenzidine and hematoxylin staining. Images were obtained with an Olympus CX41 microscope and QCapture software (QImaging).

[10] = E-test on FAA agar, triplicate, test range 0.016 to 256 ug/ml, no bacterial growth at 0.016 ug/ml, read-out: MIC

For `O=c1[nH]cc(F)c(=O)[nH]1` [5-FU, 5-fluorouracil], which “inhibition of F. nucleatum growth in pilot screen” value (Fusobacterium nucleatum) is on record?
The value was “significantly inhibit F. nucleatum growth; also recorded: potent inhibitor of Fusobacterium growth”.

What about the “inhibition of Fusobacterium growth, patient CRC isolates” value [1] of the same compound?
Its value is “inhibits Fusobacterium growth at levels comparable to achievable doses in plasma of treated patients; also recorded: potent inhibitors of Fusobacterium growth; also recorded: within a range comparable to patient plasma levels when receiving 5-fluorouracil infusion”.

What about the “inhibition of Fusobacterium growth, patient CRC isolates” value ([1]; listed as 5-Fluorouracil) of the same compound?
Its value is “inhibits Fusobacterium growth at levels comparable to achievable doses in plasma of treated patients”.

What about the “recurrence/metastasis of Fusobacterium-positive colorectal tumors” value [2] of the same compound?
The value was “less likely to develop recurrence/metastasis”.

What about the cardiotoxicity [3] of the same compound?
Its cardiotoxicity is “associated with cardiotoxicity”.

Which “inhibition of Fusobacterium growth, dose response validation” value [4] does the source give for `CCCCCCNC(=O)n1cc(F)c(=O)[nH]c1=O` [carmofur] here?
The value was “even more potent in killing Fusobacterium than the active drug 5-FU”.

What about the “inhibition of Fusobacterium growth, dose response validation” value ([4]; listed as Carmofur) of the same compound?
The value was “potent inhibitor of Fusobacterium growth”.

What does the source list for `CO[C@@]1(NC(=O)Cc2cccs2)C(=O)N2C(C(=O)O)=C(COC(N)=O)CS[C@@H]21` [cefoxitin]?
in vitro antibiotic sensitivity (sensitive / resistant) ([5]; E-test on FAA agar, triplicate): sensitive; MIC [5, 10]: < 0.016 µg/mL; tumorigenesis in ETBF induced murine colonic tumors [6]: reduction in tumorigenesis

For `O=C(N[C@H](CO)[C@H](O)c1ccc([N+](=O)[O-])cc1)C(Cl)Cl` [chloramphenicol], which “general susceptibility of the species” value (Fusobacterium species) is on record?
The value was “susceptible”.

For `CC[C@H]1OC(=O)[C@H](C)[C@@H](O[C@H]2C[C@@](C)(OC)[C@@H](O)[C@H](C)O2)[C@H](C)[C@@H](O[C@@H]2O[C@H](C)C[C@H](N(C)C)[C@H]2O)[C@](C)(O)C[C@@H](C)C(=O)[C@H](C)[C@@H](O)[C@]1(C)O` [erythromycin], which “general susceptibility of the species” value (Fusobacterium species) is on record?
The value was “resistant”.

For `Cc1ncc([N+](=O)[O-])n1CCO` [metronidazole], which “in vitro antibiotic sensitivity (sensitive / resistant)” value ([5]; E-test on FAA agar, triplicate) is on record?
Its value is “sensitive”.

What about the MIC [5, 10] of the same compound?
Its MIC is less than 0.016 µg/mL.

And the MIC ([5]; F. nucleatum isolates from the PDX, read-out: minimum inhibitory concentration)?
Its MIC is less than 0.016 µg/mL.

And the “tumor growth (percentage tumor volume increase), Fusobacterium-positive PDX” value [7]?
Its value is “reduces tumor growth rate; also recorded: statistically significant decrease in tumor growth”.

And the “tumor growth (percentage tumor volume increase), Fusobacterium-free HT-29 xenograft” value [8]?
The value was “no significant decrease in tumor growth; also recorded: not statistically significant”.

And the “Fusobacterium load in the tumor tissue” value (Fusobacterium)?
Its value is “significant decrease in Fusobacterium load; also recorded: decreases Fusobacterium load”.

What about the “tumor cell proliferation (BrdU incorporation)” value [9] of the same compound?
The value was “reduces tumor growth rate and cancer cell proliferation; also recorded: significant reduction in tumor cell proliferation; also recorded: decreased cancer cell proliferation”.

And the “inhibition of F. nucleatum growth in pilot screen” value (Fusobacterium nucleatum)?
Its value is “significantly inhibit F. nucleatum growth”.

And the “reported sensitivity of Fusobacteria” value (Fusobacterium species; Lofmark et al. 2010)?
The value was “highly sensitive”.

With penicillin as the compound, how does the “general susceptibility of the species” value (Fusobacterium species) read?
The value was “susceptible”.
